Source: ChEMBL document CHEMBL1151171, “New biologically active triterpenoid saponins from Scabiosa tschiliensis” (J Nat Prod, 2004)
The source made the active and inactive calls. No cut-off for these calls is given here.

Tests used:
[1] = biological target: T1, Pancreatic triacylglycerol lipase (Homo sapiens) (UniProt P16233); test: Inhibition of pancreatic lipase assessed as effect on oleic acid release from triolein at 1 mg/mL relative to control
T1 sequence (whole entry): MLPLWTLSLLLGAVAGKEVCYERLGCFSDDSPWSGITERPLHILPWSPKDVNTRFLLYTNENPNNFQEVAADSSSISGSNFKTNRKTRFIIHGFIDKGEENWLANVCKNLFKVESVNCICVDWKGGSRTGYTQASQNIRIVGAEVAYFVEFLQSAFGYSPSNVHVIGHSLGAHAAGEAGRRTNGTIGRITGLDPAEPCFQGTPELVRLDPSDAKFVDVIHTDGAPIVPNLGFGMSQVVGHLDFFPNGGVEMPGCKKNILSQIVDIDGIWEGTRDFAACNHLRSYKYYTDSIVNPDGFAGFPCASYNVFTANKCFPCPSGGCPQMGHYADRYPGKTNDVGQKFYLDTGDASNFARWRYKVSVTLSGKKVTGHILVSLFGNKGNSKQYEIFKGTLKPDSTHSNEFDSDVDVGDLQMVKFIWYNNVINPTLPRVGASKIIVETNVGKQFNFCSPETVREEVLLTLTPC

[2] = biological target: T1, Pancreatic triacylglycerol lipase (Homo sapiens); test: Inhibition of pancreatic lipase assessed as effect on oleic acid release from triolein at 0.12 mg/mL relative to control
[3] = biological target: T1, Pancreatic triacylglycerol lipase (Homo sapiens); test: Inhibition of pancreatic lipase assessed as effect on oleic acid release from triolein relative to control
[4] = biological target: T1, Pancreatic triacylglycerol lipase (Homo sapiens); test: Inhibition of pancreatic lipase assessed as effect on oleic acid release from triolein at 0.005 mg/mL relative to control

Structure (SMILES) | Activity [1] | also measured
C[C@@H]1O[C@@H](O[C@H]2[C@H](O[C@H]3CC[C@]4(C)[C@H]5CC=C6[C@@H]7CC(C)(C)CC[C@]7(C(=O)O[C@@H]7O[C@H](CO[C@@H]8O[C@H](CO)[C@@H](O)[C@H](O)[C@H]8O)[C@@H](O)[C@H](O)[C@H]7O)CC[C@@]6(C)[C@]5(C)CC[C@H]4C3(C)C)OC[C@@H](O)[C@@H]2O)[C@H](O)[C@H](O[C@@H]2OC[C@@H](O[C@@H]3O[C@H](CO)[C@@H](O[C@@H]4OC[C@@H](O)[C@H](O)[C@H]4O)[C@H](O)[C@H]3O)[C@H](O)[C@H]2O)[C@H]1O | Active | 
C[C@@H]1O[C@@H](O[C@H]2[C@H](O[C@H]3CC[C@]4(C)[C@H]5CC=C6[C@@H]7CC(C)(C)CC[C@]7(C(=O)O[C@@H]7O[C@H](CO[C@@H]8O[C@H](CO)[C@@H](O)[C@H](O)[C@H]8O)[C@@H](O)[C@H](O)[C@H]7O)CC[C@@]6(C)[C@]5(C)CC[C@H]4C3(C)C)OC[C@@H](O)[C@@H]2O)[C@H](O)[C@H](O[C@@H]2OC[C@@H](O[C@@H]3O[C@H](CO)[C@@H](O)[C@H](O)[C@H]3O)[C@H](O)[C@H]2O)[C@H]1O | Active | 
C[C@@H]1O[C@@H](O[C@H]2[C@H](O[C@H]3CC[C@]4(C)[C@H]5CC=C6[C@@H]7CC(C)(C)CC[C@]7(C(=O)O)CC[C@@]6(C)[C@]5(C)CC[C@H]4C3(C)C)OC[C@H](O)[C@@H]2O)[C@H](O)[C@H](O[C@@H]2OC[C@@H](O[C@@H]3O[C@H](CO)[C@@H](O)[C@H](O)[C@H]3O)[C@H](O)[C@H]2O)[C@H]1O |  | Activity [2]: Active; Activity [3]: Active
CCCCCCCCCCC[C@@H](C[C@@H]1OC(=O)[C@H]1CCCCCC)OC(=O)[C@H](CC(C)C)NC=O |  | Activity [4]: Active
C[C@@H]1O[C@@H](O[C@H]2[C@H](O[C@H]3CC[C@]4(C)[C@H]5CC=C6[C@@H]7CC(C)(C)CC[C@]7(C(=O)O[C@@H]7O[C@H](CO[C@@H]8O[C@H](CO)[C@@H](O)[C@H](O)[C@H]8O)[C@@H](O)[C@H](O)[C@H]7O)CC[C@@]6(C)[C@]5(C)CC[C@H]4C3(C)C)OC[C@@H](O)[C@@H]2O)[C@H](O)[C@H](O[C@@H]2OC[C@@H](O)[C@H](O)[C@H]2O)[C@H]1O | Active | 
C[C@@H]1O[C@@H](O[C@H]2[C@H](O[C@H]3CC[C@]4(C)[C@H]5CC=C6[C@@H]7CC(C)(C)CC[C@]7(C(=O)O[C@@H]7O[C@H](CO[C@@H]8O[C@H](CO)[C@@H](O)[C@H](O)[C@H]8O)[C@@H](O)[C@H](O)[C@H]7O)CC[C@@]6(C)[C@]5(C)CC[C@H]4C3(C)C)OC[C@@H](O)[C@@H]2O)[C@H](O)[C@H](O[C@@H]2O[C@H](CO)[C@@H](O)[C@H](O)[C@H]2O)[C@H]1O | Active | 
C[C@@H]1O[C@@H](O[C@H]2[C@H](O[C@H]3CC[C@]4(C)[C@H]5CC=C6[C@@H]7CC(C)(C)CC[C@]7(C(=O)O[C@@H]7O[C@H](CO[C@@H]8O[C@H](CO)[C@@H](O)[C@H](O)[C@H]8O)[C@@H](O)[C@H](O)[C@H]7O)CC[C@@]6(C)[C@]5(C)CC[C@H]4C3(C)C)OC[C@@H](O)[C@@H]2O)[C@H](O)[C@H](O[C@@H]2O[C@H](CO)[C@@H](O[C@@H]3O[C@H](CO)[C@@H](O)[C@H](O)[C@H]3O)[C@H](O)[C@H]2O)[C@H]1O | Active | 
C[C@@H]1O[C@@H](O[C@H]2[C@H](O[C@H]3CC[C@]4(C)[C@H]5CC=C6[C@H]7[C@](C(=O)O[C@@H]8O[C@H](CO[C@@H]9O[C@H](CO)[C@@H](O)[C@H](O)[C@H]9O)[C@@H](O)[C@H](O)[C@H]8O)(CC[C@@H](C)[C@@]7(C)O)CC[C@@]6(C)[C@]5(C)CC[C@H]4C3(C)C)OC[C@H](O)[C@@H]2O)[C@H](O)[C@H](O[C@@H]2O[C@H](CO)[C@@H](O)[C@H](O)[C@H]2O)[C@H]1O | Active | 
